Measurements: patent publication US20070117784A1, “Treatment of hyperproliferative diseases with anthraquinones” (Novacea, Inc., priority 2005, published 2007)
Blank lines part the entries; values can stand above or below the compound they belong to.

What was measured:
[1] = tested on: HT-29; assay: MTS cytotoxicity assay, HT-29; type: cell-based; settings: normoxic, 24 h exposure
[2] = tested on: HCT116; assay: MTS cytotoxicity assay, HCT116; type: cell-based; settings: 24 h exposure
[3] = tested on: LoVo; assay: MTS cytotoxicity assay, LoVo; type: cell-based; settings: normoxic, 24 h exposure
[4] = tested on: LS174T; assay: MTS cytotoxicity assay, LS174T; type: cell-based; settings: normoxic, 24 h exposure
[5] = tested on: U87MG; assay: MTS cytotoxicity assay, U87MG; type: cell-based; settings: Homo sapiens, U-87 MG, normoxic, 24 h exposure
[6] = tested on: U118MG; assay: MTS cytotoxicity assay, U118MG; type: cell-based; settings: Homo sapiens, U-118-MG, normoxic, 24 h exposure
[7] = tested on: U251; assay: MTS cytotoxicity assay, U251; type: cell-based; settings: Homo sapiens, U-251, normoxic, 24 h exposure
[8] = tested on: FaDu; assay: MTS cytotoxicity assay, FaDu; type: cell-based; settings: Homo sapiens, normoxic, 24 h exposure
[9] = tested on: KB; assay: MTS cytotoxicity assay, KB; type: cell-based; settings: Homo sapiens, normoxic, 24 h exposure
[10] = tested on: KB-3; assay: MTS cytotoxicity assay, KB-3; type: cell-based; settings: KB3; KB-3 (radiation-resistant); normoxic; 24 h exposure
[11] = tested on: Hep3B2.1-7; assay: MTS cytotoxicity assay, Hep3B2.1-7; type: cell-based; settings: normoxic, 24 h exposure
[12] = tested on: A375-SM; assay: MTS cytotoxicity assay, A375-SM; type: cell-based, mouse; settings: Homo sapiens, normoxic, 24 h exposure
[13] = tested on: B16-F10; assay: MTS cytotoxicity assay, B16-F10; type: cell-based, human; settings: Mus musculus, normoxic, 24 h exposure
[14] = mouse, in vivo
[15] = single 20 mg/kg dose of AQ4N; previous studies; cited from earlier work
[16] = tested on: bladder cancer cell lines; settings: previous data; cited from earlier work
[17] = tested on: Raji; assay: MTS cytotoxicity assay, Raji; settings: Homo sapiens, 24 h
[18] = tested on: KG1a; assay: MTS cytotoxicity assay, KG1a; settings: Homo sapiens, KG-1a, 24 h
[19] = tested on: K562; assay: MTS cytotoxicity assay, K562; settings: Homo sapiens, K562, 24 h
[20] = tested on: P388; assay: MTS cytotoxicity assay, P388; settings: Mus musculus, P388, 24 h
[21] = tested on: Daudi; assay: MTS cytotoxicity assay, Daudi; settings: Homo sapiens, 24 h
[22] = tested on: Ramos; assay: MTS cytotoxicity assay, Ramos; settings: Homo sapiens, 24 h
[23] = tested on: HL-60; assay: MTS cytotoxicity assay, HL-60; settings: Homo sapiens, HL-60, 24 h
[24] = tested on: L1210; assay: MTS cytotoxicity assay, L1210; settings: Mus musculus, L1210, 24 h
[25] = tested on: MOLT-4; assay: MTS cytotoxicity assay, MOLT-4; settings: Homo sapiens, MOLT-4, 24 h
[26] = tested on: L5178Y; assay: MTS cytotoxicity assay, L5178Y; settings: Mus musculus, 24 h
[27] = tested on: ARH177; assay: MTS cytotoxicity assay, ARH177; settings: 24 h
[28] = tested on: BXPC-3; assay: MTS cytotoxicity assay, BXPC-3; settings: Homo sapiens, BXPC-3, 24 h
[29] = tested on: Panc-1; assay: MTS cytotoxicity assay, Panc-1; settings: Homo sapiens, PANC-1, 24 h
[30] = tested on: Namalwa; assay: MTS cytotoxicity assay, Namalwa; settings: Homo sapiens, 24 h
[31] = tested on: MiaPaCa; assay: MTS cytotoxicity assay, MiaPaCa; settings: Homo sapiens, MIA PaCa-2, 24 h
[32] = tested on: CCRF-CEM; assay: MTS cytotoxicity assay, CCRF-CEM; settings: Homo sapiens, 24 h
[33] = tested on: RPMI8226; assay: MTS cytotoxicity assay, RPMI8226; settings: Homo sapiens, RPMI-8226, 24 h
[34] = tested on: CCRF-CEM/VLB; assay: MTS cytotoxicity assay, CCRF-CEM/VLB; settings: Homo sapiens, 24 h
[35] = tested on: RPMI8226/Dox; assay: MTS cytotoxicity assay, RPMI8226/Dox; settings: Homo sapiens, RPMI-8226, 24 h
[36] = tested on: MO59K cells (glioblastoma); assay: Colony formation assay, combination with temozolomide and radiation
[37] = tested on: human Panc-1 tumors; assay: sc Panc-1 pancreatic xenograft, tumor growth delay; type: in vivo, nude mice; settings: Panc-1 sc, gemcitabine treatment
Protocol: Mice were actively sacrificed as a cancer death when their tumors reached 1200 mm^3. Shown are Kaplan-Meier plots summarizing the percentage of the animals remaining in the study as a function of time following tumor inoculation. Treatment outcome was determined from TGD, defined as the increase in median TTE in a treatment group as compared to the control group.
In each case, a range of AQ4N dose schedules were evaluated to determine the optimum dosage for efficacy as a single agent.
In the Panc-1 model, the endpoint of the study was pre-defined to be when tumors reached 1200 mm^3 and treatment outcome was determined from tumor growth delay (TGD). TGD is defined as the increase in median time to endpoint (TTE) in a treatment group as compared to the control group, and expressed in days or as a percentage of the median TTE vs. the control group.

[38] = tested on: human BxPC-3 pancreatic carcinoma; assay: sc BxPC-3 pancreatic xenograft, tumor growth inhibition; type: in vivo, nude mice; settings: BxPC-3 sc
Protocol: Shown are the mean (±SEM) tumor volumes measured from treatment and control groups following tumor challenge. The study was terminated when tumors from the vehicle-treated group reached an average of approximately 2 grams (day 27) and the % TGI was calculated as defined in the text. […] Animals were actively sacrificed when they became moribund from excessive tumor burden.

[39] = tested on: BxPC-3 pancreatic carcinoma (orthotopic); assay: Orthotopic BxPC-3 pancreatic carcinoma model, survival; settings: BxPC-3 ot; gemcitabine treatment; P=0.04

tumor accumulation vs dose ([14]; 240 mg/kg): dose-dependent fashion | percent of near maximal tumor levels after 2 hr post-infusion ([14]; 2 h): 55-85% | percent of conversion occurring by 8 hr ([14]; 8 h): 80-100%
SMILES: CN(C)CCNc1ccc(NCCN(C)C)c2c1C(=O)c1c(O)ccc(O)c1C2=O [AQ4, 1,4-bis{[2-(dimethylamino)ethyl]amino}-5,8-dihydroxyanthracene-9,10-dione]
IC50 ([1]; Homo sapiens): 0.7 µM | IC50 ([2]; Homo sapiens, HCT-116, normoxic): 3.9 µM | IC50 ([3]; Homo sapiens): 0.21 µM | IC50 ([4]; Homo sapiens): 0.95 µM | IC50 [5]: 0.9 µM | IC50 [6]: 1.3 µM | IC50 [7]: 0.6 µM | IC50 [8]: 0.3 µM | IC50 [9]: 0.6 µM | IC50 [10]: 3.3 µM | IC50 [11]: 0.8 µM | IC50 [12]: 3.3 µM | IC50 [13]: 0.02 µM | time AQ4 can be detected in tumor tissues [15]: at least 2 weeks | interaction with radiation [16]: additive interactions | IC50 [17]: 0.2 µM | IC50 [18]: 0.05 µM | IC50 [19]: 0.4 µM | IC50 [20]: 0.01 µM | IC50 [21]: 0.0046 µM | IC50 [22]: 0.008 µM | IC50 [23]: 0.01 µM | IC50 [24]: 0.0012 µM | IC50 [25]: 0.002 µM | IC50 [26]: 0.03 µM | IC50 [27]: 0.2 µM | IC50 [28]: 1.6 µM | IC50 [29]: 0.4 µM | IC50 [30]: 0.0002 µM | IC50 [31]: 1.6 µM | IC50 [32]: 0.62 µM | IC50 [33]: 0.2 µM | IC50 [34]: 0.34 µM | IC50 [35]: 1.1 µM | combined cytotoxic effect with temozolomide and radiation ([36]; 48 hr combined treatment, 1.5 Gy at 24 hr, FIG. 24): additive and synergistic cytotoxic effects | combined cytotoxic effect with temozolomide ([36]; 48 hr temozolomide, 10-day colony formation, FIG. 23): additive and synergistic cytotoxic effects

tumor level by 8 h [14]: minimal levels by 8 h for most doses | plasma level at 2 hr (240 mg/kg AQ4N dose): only trace amounts | metabolite detection in plasma (any AQ4N dose or time point): undetectable
SMILES: CN(C)CCNc1ccc(NCC[N+](C)(C)[O-])c2c1C(=O)c1c(O)ccc(O)c1C2=O [AQ4M]
tumor level vs dose at 2 hr [14]: approximately linear with increasing dose

SMILES: COc1cccc2c1C(=O)c1c(O)c3c(c(O)c1C2=O)C[C@@](O)(C(=O)CO)C[C@@H]3O[C@H]1C[C@H](N)[C@H](O)[C@H](C)O1 [Dox, doxorubicin, reference compound]
IC50 [5]: 0.4 µM | IC50 [6]: 0.03 µM | IC50 [7]: 0.03 µM | IC50 [17]: 0.0009 µM | IC50 [18]: 0.6 µM | IC50 [20]: 0.1 µM | IC50 [21]: 0.0005 µM | IC50 [22]: 0.0018 µM | IC50 [23]: 0.1 µM | IC50 [24]: 0.05 µM | IC50 [25]: 0.0075 µM | IC50 [26]: 0.05 µM | IC50 [30]: 0.0074 µM | IC50 [33]: 0.1 µM | IC50 [35]: 54.7 µM

SMILES: CCc1c2c(nc3ccc(O)cc13)-c1cc3c(c(=O)n1C2)COC(=O)[C@]3(O)CC [SN38, 7-ethyl-10-hydro-camptothecin, reference compound]
IC50 [1]: 0.0651 µM | IC50 ([2]; normoxic): 0.0484 µM | IC50 [3]: 0.0006 µM | IC50 [4]: 0.0026 µM

SMILES: CC(=O)O[C@H]1C(=O)[C@@]2(C)[C@H]([C@H](OC(=O)c3ccccc3)[C@]3(O)C[C@H](OC(=O)[C@H](O)[C@@H](NC(=O)c4ccccc4)c4ccccc4)C(C)=C1C3(C)C)[C@]1(OC(C)=O)CO[C@@H]1C[C@@H]2O [Taxol, reference compound]
IC50 [8]: 6.5 µM | IC50 [9]: 2 µM | IC50 [10]: 19.1 µM | IC50 [11]: 13.7 µM

SMILES: CCC1=C[C@@H]2CN(C1)Cc1c([nH]c3ccccc13)[C@@](C(=O)OC)(c1cc3c(cc1OC)N(C)[C@H]1[C@@](O)(C(=O)OC)[C@H](OC(C)=O)[C@]4(CC)C=CCN5CC[C@]31[C@@H]54)C2 [VLB, vinorelbine, reference compound]
IC50 [32]: 0.01 µM | IC50 [34]: 1040 µM

SMILES: Nc1ccn([C@@H]2O[C@H](CO)[C@@H](O)C2(F)F)c(=O)n1 [gemcitabine]
TGD as percentage of median TTE vs control [37]: 19% | TTE ([37]; endpoint 1200 mm^3): 34.2 days | TGD (tumor growth delay) ([37]; non-significant): 5.4 days | TGI ([38]; gemcitabine treatment, ~day 27): 51% | TGI in comparison to vehicle-treated groups ([38]; single-agent, p<0.001, FIG. 20A): significant TGI | IC50 [28]: 0.0595 µM | IC50 [29]: 1.7 µM | IC50 [31]: 0.023 µM | median survival [39]: 40 days
